Test results reported in paper PMC6158578, “Optimization and Lead Selection of Benzothiazole Amide Analogs Toward a Novel Antimycobacterial Agent” (Frontiers in Microbiology, 2018).
Converted amounts (≈) assume the structure as drawn. Where two headings read alike, the source gives them in different places.

Tests used:
[1] = type: cell-based; settings: for Interpretation of checkerboard synergy testing: antibiotic in combination with CRS400393 (benzothiazole amides)
[2] = tested on: M. abscessus 1; assay: MIC in MHB versus 7H9+OADC; type: cell-based
[3] = tested on: M. abscessus 79; assay: MIC in MHB versus 7H9+OADC; type: cell-based
[4] = tested on: M. chelonae (n = 11) clinical isolates; assay: MIC against rapid-growing NTM clinical isolates; type: cell-based; settings: for MIC90: Mycobacteroides chelonae
[5] = tested on: M. abscessus 21; assay: MIC in MHB versus 7H9+OADC; type: cell-based
[6] = tested on: M. abscessus (n = 20) clinical isolates; assay: MIC against rapid-growing NTM clinical isolates; type: cell-based; settings: for MIC90: Mycobacteroides abscessus
[7] = tested on: M. fortuitum (n = 11) clinical isolates; assay: MIC against rapid-growing NTM clinical isolates; type: cell-based; settings: for MIC90: Mycolicibacterium fortuitum
[8] = tested on: Other NTM (n = 12); assay: MIC against rapid-growing NTM clinical isolates; type: cell-based
[9] = tested on: Mabs 21
[10] = tested on: C. albicans ATCC 10231; assay: MIC, spectrum of activity; type: cell-based; settings: Candida albicans, ATCC10231
[11] = tested on: M. intracellulare 1956; assay: MIC, Middlebrook medium (7H9 + OADC, 7 days); type: cell-based; settings: Mycobacterium intracellulare, 1956, 168 h
[12] = tested on: E. faecalis ATCC 29212; assay: MIC, spectrum of activity; type: cell-based; settings: Enterococcus faecalis, ATCC29212
[13] = tested on: M. abscessus massiliense 119; assay: MIC, broth microdilution with resazurin (MHB, 3 days); type: cell-based; settings: Mycobacteroides abscessus
[14] = tested on: P. aeruginosa ATCC 35151; assay: MIC, spectrum of activity; type: cell-based; settings: Pseudomonas aeruginosa, ATCC35151
[15] = tested on: E. coli ATCC 25922 + PMBN (permeabilized); assay: MIC, spectrum of activity; type: cell-based; settings: Escherichia coli, ATCC25922
[16] = tested on: M. peregrinum ATCC 700686; assay: MIC, broth microdilution with resazurin (MHB, 3 days); type: cell-based; settings: Mycolicibacterium peregrinum, ATCC700686
[17] = tested on: S. pneumoniae ATCC 49619; assay: MIC, spectrum of activity; type: cell-based; settings: Streptococcus pneumoniae, ATCC49619
[18] = physchem; type: physicochemical; settings: pH 7.4, aqueous buffer, thermodynamic from solid
Procedure: (§1) ADMET assays were performed through NIAID Preclinical Services and Eurofins. Potential for cytotoxicity was monitored in HepG2 cells after 72 h growth in the presence of test compounds, either prepared as 10-point 3-fold serial dilutions or at a fixed 10 μM concentration. Cell viability was measured using the CellTiter-Glo® Luminescent Cell Viability Assay (Promega) or via fluorescent image analysis. Cytotoxicity was expressed as IC50 or as percent reduction of viable cells relative to a reference compound. Metabolic stability of compounds was evaluated via incubation with human liver microsomes at 37°C and quantitative analysis of parent compound by LC-MS/MS in samples removed at 0, 5, 15, 30, and 45 min (Obach, [1999]). For cytochrome P450 (CYP) inhibition assays, compounds were prepared as a 7-point dilution series and incubated with human liver microsomes in buffer containing 2 mM NADPH and probe substrate. […] Thermodynamic solubility of compounds in aqueous media was determined by incubation in 50 mM potassium phosphate buffer (pH 7.4) for 24 h, followed by HPLC-UV detection of compound in the filtrate (Analiza, Cleveland, OH, United States).

[19] = HepG2 cytotoxicity, 72 h; type: cell-based; settings: human, HepG2 cells, HepG2, 72 h, read-out: HepG2 cytotox., IC50
Procedure: as §1

[20] = tested on: M. chelonae 93; assay: MIC, broth microdilution with resazurin (MHB, 3 days); type: cell-based; settings: Mycobacteroides chelonae, 93
[21] = tested on: E. coli tolC CGSC 5633 (efflux mutant strain); assay: microbe, parasite or virus in culture; type: cell-based; settings: Escherichia coli
[22] = tested on: M. avium 101; assay: MIC, Middlebrook medium (7H9 + OADC, 7 days); type: cell-based; settings: Mycobacterium avium, 101, 168 h
[23] = molecular target: T1, CYP2B6 (Homo sapiens, UniProt P20813); assay: CYP inhibition in human liver microsomes; type: in vitro ADME
T1 construct: incubated with human liver microsomes in buffer containing 2 mM NADPH and probe substrate; from tissue; host or cells: human liver microsomes
T1 sequence (P20813 1-491): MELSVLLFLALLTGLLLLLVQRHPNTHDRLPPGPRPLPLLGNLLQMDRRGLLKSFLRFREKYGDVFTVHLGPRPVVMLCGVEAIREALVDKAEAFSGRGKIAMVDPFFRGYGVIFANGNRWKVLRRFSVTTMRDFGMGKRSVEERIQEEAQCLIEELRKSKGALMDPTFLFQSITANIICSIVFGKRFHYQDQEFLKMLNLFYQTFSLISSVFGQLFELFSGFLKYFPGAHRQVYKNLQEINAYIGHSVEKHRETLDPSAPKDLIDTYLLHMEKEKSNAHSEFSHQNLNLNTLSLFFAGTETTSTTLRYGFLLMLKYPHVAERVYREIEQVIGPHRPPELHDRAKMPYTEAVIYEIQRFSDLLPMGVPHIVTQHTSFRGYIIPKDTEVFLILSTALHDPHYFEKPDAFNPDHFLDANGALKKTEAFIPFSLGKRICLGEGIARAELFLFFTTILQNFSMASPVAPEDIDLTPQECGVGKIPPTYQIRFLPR
Procedure: as §1

[24] = tested on: CYP3A; assay: CYP inhibition in human liver microsomes; type: in vitro ADME
Procedure: as §1

[25] = tested on: S. pyogenes ATCC 19615; assay: MIC, spectrum of activity; type: cell-based; settings: Streptococcus pyogenes, ATCC19615
[26] = tested on: M. fortuitum 41; assay: MIC, broth microdilution with resazurin (MHB, 3 days); type: cell-based; settings: Mycolicibacterium fortuitum, 41
[27] = tested on: S. aureus ATCC 29213; assay: MIC, spectrum of activity; type: cell-based; settings: Staphylococcus aureus, ATCC29213
[28] = 50% complement-inactivated human serum
[29] = tested on: M. chimaera 1502055; assay: MIC, Middlebrook medium (7H9 + OADC, 7 days); type: cell-based; settings: 1502055, 168 h
[30] = tested on: M. abscessus ATCC 19977; assay: MIC, broth microdilution with resazurin (MHB, 3 days); type: cell-based; settings: Mycobacteroides abscessus, ATCC19977
[31] = tested on: M. tuberculosis H37Rv mc^2 6206; assay: microbe, parasite or virus in culture; type: cell-based; settings: Mycobacterium tuberculosis, 168 h
[32] = antibiotic in checkerboard combination with CRS400393
[33] = M. abscessus 1, 7H9 + OADC (5 mg/mL albumin)
[34] = M. abscessus 79, 7H9 + OADC (5 mg/mL albumin)
[35] = M. chelonae (n = 11), read-out: MIC90
[36] = M. abscessus 21, 7H9 + OADC (5 mg/mL albumin)
[37] = M. abscessus (n = 20), read-out: MIC90
[38] = M. fortuitum (n = 11), read-out: MIC90
[39] = Other NTM (n = 12), read-out: MIC90

NCC[C@H](O)C(=O)N[C@@H]1C[C@H](N)[C@@H](O[C@H]2O[C@H](CN)[C@@H](O)[C@H](O)[C@H]2O)[C@H](O)[C@H]1O[C@H]1O[C@H](CO)[C@@H](O)[C@H](N)[C@H]1O [Amikacin, reference compound]
FIC Index [1, 32]: 1
Interpretation of checkerboard synergy testing [1]: additive
MIC [2, 33]: 16 µg/mL
MIC ([2]; M. abscessus 1, MHB): 8 µg/mL (≈ 13.7 µM)
MIC [3, 34]: 4 µg/mL
MIC ([3]; M. abscessus 79, MHB): 2 µg/mL (≈ 3.42 µM)
MIC90 [4, 35]: > 16 µg/mL
MIC [5, 36]: 4 µg/mL
MIC ([5]; M. abscessus 21, MHB): 2 µg/mL (≈ 3.42 µM)
MIC90 [6, 37]: 16 µg/mL (≈ 27.3 µM)
MIC range ([7]; M. fortuitum (n = 11)): 0.5 to 4 µg/mL
MIC90 [7, 38]: 2 µg/mL (≈ 3.42 µM)
MIC range ([8]; Other NTM (n = 12)): 0.5 to 16 µg/mL
MIC90 [8, 39]: 16 µg/mL (≈ 27.3 µM)

CC[C@H]1OC(=O)[C@H](C)[C@@H](O[C@H]2C[C@@](C)(OC)[C@@H](O)[C@H](C)O2)[C@H](C)[C@@H](O[C@@H]2O[C@H](C)C[C@H](N(C)C)[C@H]2O)[C@](C)(O)C[C@@H](C)CN(C)[C@H](C)[C@@H](O)[C@]1(C)O [Azithromycin, reference compound]
lung histology ([9]; after 4 weeks of treatment): only minimal pathologic evidence of inflammatory infiltrates
reduction of lung CFU compared to the untreated group ([9]; oral gavage 100 mg/kg, 4 weeks): 0.38 Log10 CFU
FIC Index [1, 32]: 1
Interpretation of checkerboard synergy testing [1]: additive
MIC range ([4]; M. chelonae (n = 11)): 0.12 to 0.5 µg/mL
MIC90 [4, 35]: 0.5 µg/mL (≈ 0.668 µM)
MIC90 [6, 37]: > 8 µg/mL
MIC90 [7, 38]: > 8 µg/mL
MIC90 [8, 39]: > 8 µg/mL

COc1nc2ccc(Br)cc2cc1[C@@H](c1ccccc1)[C@@](O)(CCN(C)C)c1cccc2ccccc12 [Bedaquiline]
FIC Index [1, 32]: 2
Interpretation of checkerboard synergy testing [1]: indifferent
Interpretation of checkerboard synergy testing ([1]; listed as bedaquiline): indifference

CC12CCCC(C(=O)Nc3nc4ccc(OC(F)(F)F)cc4s3)(CCC1)C2 [CRS400359]
MIC [10]: 64 µg/mL (≈ 161 µM)
MIC [11]: 2 µg/mL
MIC [12]: > 64 µg/mL
MIC [13]: ≤ 0.06 µg/mL
MIC [14]: 64 µg/mL (≈ 161 µM)
MIC [15]: > 64 µg/mL
MIC [2, 33]: 1 µg/mL
MIC ([2]; M. abscessus 1, MHB): 0.06 µg/mL (≈ 0.151 µM)
MIC [3, 34]: 0.25 µg/mL
MIC ([3]; M. abscessus 79, MHB): 0.06 µg/mL (≈ 0.151 µM)
MIC [16]: 0.12 µg/mL (≈ 0.301 µM)
MIC [17]: 32 µg/mL (≈ 80.3 µM)
solubility at 24 h [18]: < 3 µM
IC50 at 72 h [19]: 10 µM
IC50 at 72 h ([19]; value in brackets): 4 µg/mL
MIC [20]: 0.12 µg/mL (≈ 0.301 µM)
MIC range ([4]; M. chelonae (n = 11)): 0.25 to 0.5 µg/mL
MIC90 [4]: 0.25 µg/mL (≈ 0.627 µM)
MIC [21]: > 64 µg/mL
MIC [22]: 2 µg/mL
inhibition at 10 µM [23]: 30%
inhibition at 10 µM [24]: 0%
MIC [25]: > 64 µg/mL
MIC [26]: 0.12 µg/mL (≈ 0.301 µM)
MIC [27]: > 64 µg/mL
Protein (serum) binding [28]: >95%
MIC [5, 36]: 2 µg/mL
MIC ([5]; M. abscessus 21, MHB): 0.06 µg/mL (≈ 0.151 µM)
MIC [29]: 2 µg/mL
MIC [30]: ≤ 0.06 µg/mL
MIC [31]: 0.5 µg/mL (≈ 1.25 µM)
MIC range ([6]; M. abscessus (n = 20)): 0.06 to 2 µg/mL
MIC90 [6]: 0.25 µg/mL (≈ 0.627 µM)
MIC range ([7]; M. fortuitum (n = 11)): 0.06 to 1 µg/mL
MIC90 [7]: 1 µg/mL (≈ 2.51 µM)
MIC90 [8]: 0.5 µg/mL (≈ 1.25 µM)
MIC range ([8]; Other NTM (n = 12)): 0.12 to 2 µg/mL

CO[C@@]1(NC(=O)Cc2cccs2)C(=O)N2C(C(=O)O)=C(COC(N)=O)CS[C@@H]21 [Cefoxitin]
FIC Index [1, 32]: 0.56
Interpretation of checkerboard synergy testing [1]: additive

CC(C)/N=c1\cc2n(-c3ccc(Cl)cc3)c3ccccc3nc-2cc1Nc1ccc(Cl)cc1 [Clofazimine]
FIC Index [1, 32]: 0.52
Interpretation of checkerboard synergy testing [1]: additive

C[C@H]1c2cccc(O)c2C(=O)C2=C(O)[C@]3(O)C(=O)C(C(N)=O)=C(O)[C@@H](N(C)C)[C@@H]3[C@@H](O)[C@@H]21 [Doxycycline]
FIC Index [1, 32]: 2
Interpretation of checkerboard synergy testing [1]: indifferent
Interpretation of checkerboard synergy testing ([1]; listed as doxycycline): indifference

CC(=O)NC[C@H]1CN(c2ccc(N3CCOCC3)c(F)c2)C(=O)O1 [Linezolid, reference compound]
FIC Index [1]: 0.56
MIC range ([4]; M. chelonae (n = 11)): 1 to 8 µg/mL
MIC90 [4, 35]: 8 µg/mL (≈ 23.7 µM)
MIC90 [6, 37]: > 8 µg/mL
MIC90 [7, 38]: > 8 µg/mL
MIC90 [8, 39]: > 8 µg/mL

Cc1cc(NS(=O)(=O)c2ccc(N)cc2)no1 [Sulfamethoxazole]
FIC Index [1]: 0.56

NC[C@H]1O[C@H](O[C@H]2[C@H](O)[C@@H](O[C@H]3O[C@H](CO)[C@@H](O)[C@H](N)[C@H]3O)[C@H](N)C[C@@H]2N)[C@H](N)C[C@@H]1O [Tobramycin]
FIC Index [1, 32]: 0.75
Interpretation of checkerboard synergy testing [1]: additive
